# Data reported in patent US20170050957A1, “4-AMINO-6-(HETEROCYCLIC)PICOLINATES AND 6-AMINO-2-(HETEROCYCLIC)PYRIMIDINE-4-CARBOXYLATES AND THEIR USE AS HERBICIDES” (Dow AgroSciences LLC, priority 2013, published 2017).
# Like-named read-outs stand apart in the source and are kept apart here.
# Key:
# Type in all cases: in vivo
# [1] = system: Key Broadleaf Weed and Crop Species; experiment: Post-emergent Test II herbicidal activity (Table 15); details: post-emergence, 336 h, 14 d; for pest or weed control at 35 g/ha: 35 g ai/ha; for pest or weed control at 70 g/ha: 70 g ai/ha; for pest or weed control at 280 g/ha: 280 g ai/ha
# Outline: (§1)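 Plants grown in greenhouse (~15 h photoperiod, 23-29 °C day, 22-28 °C night) to first or second true leaf stage, then sprayed post-emergence at 187 L/ha with a high rate and 1/2×, 1/4×, 1/8× and 1/16× dilutions. Injury scored visually after 14 d, 0-100% versus untreated plants.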
# [2] = system: sunflower (Helianthus annuus); experiment: Pre-emergent Test I herbicidal activity; details: 4 Kg ai/ha
# Protocol: (§2) Pre-emergent Test I Seeds of test species were planted into round plastic pots (5-inch diameter) containing sandy loam soil. After planting, all pots were sub-irrigated 16 h prior to compound application. Compounds were dissolved in a 97:3 v/v (volume/volume) mixture of acetone and dimethyl sulfoxide (DMSO) and diluted to the appropriate concentration in a final application solution containing water, acetone, isopropanol, DMSO and Agri-dex (crop oil concentrate) in a 59:23:15:1.0:1.5 v/v ratio and 0.02% w/v (weight/volume) of Triton X-155 to obtain the spray solution containing the highest application rate. The high application rate was serial diluted with the above application solution to provide delivery of the compound at rates 1/2×, 1/4× and 1/8× of the highest rate (equivalent to 4.0, 2.0, 1.0, and 0.5 kg/ha, respectively). Formulated compound (2.7 mL) was applied pipetted evenly over the soil surface followed by incorporation with water (15 mL). Following treatment, pots were returned to the greenhouse for the duration of the experiment. The greenhouse was programmed for an approximate 15 h photoperiod which was maintained at about 23-29° C. during the day and 22-28° C. during the night. Nutrients and water were added on a regular basis through surface irrigation and supplemental lighting was provided with overhead metal halide 1000-Watt lamps as necessary. Herbicidal effect ratings were obtained 14 days after treatment. All evaluations were made relative to appropriate controls on a scale of 0 to 100 where 0 represents no herbicidal effect and 100 represents plant death or lack of emergence from the soil.
# [3] = system: ivyleaf morningglory (Ipomoea hederecea); experiment: Pre-emergent Test I herbicidal activity; details: 4 Kg ai/ha
# Protocol: as §2
# [4] = system: giant foxtail (Setaria faberi); experiment: Pre-emergent Test I herbicidal activity; details: 4 Kg ai/ha
# Protocol: as §2
# wild oats (Avena fatua) = experiment: Pre-emergent Test I herbicidal activity; details: 4 Kg ai/ha
# Protocol: as §2
# [5] = system: barnyardgrass (Echinochloa crs-galli); experiment: Pre-emergent Test I herbicidal activity; details: 4 Kg ai/ha
# Protocol: as §2
# [6] = system: Key Grass and Sedge Weeds as well as Grass Crops; experiment: Post-emergent Test II herbicidal activity (Table 16); details: post-emergence, 336 h, 14 d; for pest or weed control at 35 g/ha: 35 g ai/ha; for pest or weed control at 70 g/ha: 70 g ai/ha; for pest or weed control at 140 g/ha: 140 g ai/ha; for pest or weed control at 280 g/ha: 280 g ai/ha
# Outline: as §1
# [7] = Abutilon theophrasti, velvetleaf (Abutilon theophrasti), read-out: Visual Growth Reduction (%) 14 Days After Application, ABUTH
# [8] = Amaranthus retroflexus, redroot pigweed (Amaranthus retroflexus), read-out: Visual Growth Reduction (%) 14 Days After Application, AMARE
# [9] = Brassica napus, oilseed rape, canola (Brassica napus), read-out: Visual Growth Reduction (%) 14 Days After Application, BRSNN
# [10] = Chenopodium album, lambsquarters (Chenopodium album), read-out: Visual Growth Reduction (%) 14 Days After Application, CHEAL
# [11] = Euphorbia heterophylla, wild poinsettia (Euphorbia heterophylla), read-out: Visual Growth Reduction (%) 14 Days After Application, EPHHL
# [12] = Helianthus annuus, sunflower (Helianthus annuus), read-out: Visual Growth Reduction (%) 14 Days After Application, HELAN
# [13] = Cyperus esculentus, yellow nutsedge (Cyperus esculentus), read-out: Visual Growth Reduction (%) 14 Days After Application, CYPES
# [14] = Echinochloa crus-galli, barnyardgrass (Echinochloa crus-galli), read-out: Visual Growth Reduction (%) 14 Days After Application, ECHCG
# [15] = Oryza sativa, rice (Oryza sativa), read-out: Visual Growth Reduction (%) 14 Days After Application, ORYSA
# [16] = Setaria faberi, giant foxtail (Setaria faberi), read-out: Visual Growth Reduction (%) 14 Days After Application, SETFA
# [17] = Triticum aestivum, wheat, spring (Triticum aestivum), read-out: Visual Growth Reduction (%) 14 Days After Application, TRZAS
# [18] = Zea mays, maize, corn (Zea mays), read-out: Visual Growth Reduction (%) 14 Days After Application, ZEAMX
structure (smiles),measurement,setting,value
COC(=O)c1nc(-c2ccc3sccc3c2)cc(N)c1Cl [Compound 3.05],pest or weed control at 35 g/ha,[1]; [7],85 to 94%
same,pest or weed control at 70 g/ha,[1]; [7],85 to 94%
same,pest or weed control at 280 g/ha,[1]; [7],95 to 100%
same,pest or weed control at 35 g/ha,[1]; [8],30 to 44%
same,pest or weed control at 70 g/ha,[1]; [8],45 to 59%
same,pest or weed control at 280 g/ha,[1]; [8],85 to 94%
same,pest or weed control at 35 g/ha,[1]; [9],0 to 29%
same,pest or weed control at 70 g/ha,[1]; [9],0 to 29%
same,pest or weed control at 280 g/ha,[1]; [9],0 to 29%
same,pest or weed control at 35 g/ha,[1]; [10],75 to 84%
same,pest or weed control at 70 g/ha,[1]; [10],85 to 94%
same,pest or weed control at 140 g/ha,"[1]; Chenopodium album, lambsquarters (Chenopodium album), 140 g ai/ha, read-out: Visual Growth Reduction (%) 14 Days After Application, CHEAL",85 to 94%
same,pest or weed control at 280 g/ha,[1]; [10],85 to 94%
same,pest or weed control at 35 g/ha,[1]; [11],60 to 74%
same,pest or weed control at 70 g/ha,[1]; [11],60 to 74%
same,pest or weed control at 280 g/ha,[1]; [11],85 to 94%
same,pest or weed control at 35 g/ha,[1]; [12],0 to 29%
same,pest or weed control at 70 g/ha,[1]; [12],0 to 29%
same,pest or weed control at 280 g/ha,[1]; [12],45 to 59%
same,Visual Growth Reduction (%) 14 Days After Application HELAN,[2],F (30-44)
same,Visual Growth Reduction (%) 14 Days After Application IPOHE,[3],A (95-100)
same,"Visual Growth Reduction (%) 14 Days After Application, SETFA",[4],A (95-100)
same,Visual Growth Reduction (%) 14 Days After Application AVEFA,wild oats (Avena fatua),F (30-44)
same,"Visual Growth Reduction (%) 14 Days After Application, ECHCG",[5],A (95-100)
same,pest or weed control at 35 g/ha,[6]; [13],0 to 29%
same,pest or weed control at 70 g/ha,[6]; [13],0 to 29%
same,pest or weed control at 140 g/ha,[6]; [13],0 to 29%
same,pest or weed control at 280 g/ha,[6]; [13],0 to 29%
same,pest or weed control at 35 g/ha,[6]; [14],45 to 59%
same,pest or weed control at 70 g/ha,[6]; [14],75 to 84%
same,pest or weed control at 140 g/ha,[6]; [14],85 to 94%
same,pest or weed control at 280 g/ha,[6]; [14],85 to 94%
same,pest or weed control at 35 g/ha,[6]; [15],0 to 29%
same,pest or weed control at 70 g/ha,[6]; [15],0 to 29%
same,pest or weed control at 140 g/ha,[6]; [15],0 to 29%
same,pest or weed control at 280 g/ha,[6]; [15],0 to 29%
same,pest or weed control at 35 g/ha,[6]; [16],0 to 29%
same,pest or weed control at 70 g/ha,[6]; [16],0 to 29%
same,pest or weed control at 140 g/ha,[6]; [16],30 to 44%
same,pest or weed control at 280 g/ha,[6]; [16],60 to 74%
same,pest or weed control at 35 g/ha,[6]; [17],0 to 29%
same,pest or weed control at 70 g/ha,[6]; [17],0 to 29%
same,pest or weed control at 140 g/ha,[6]; [17],0 to 29%
same,pest or weed control at 280 g/ha,[6]; [17],0 to 29%
same,pest or weed control at 35 g/ha,[6]; [18],0 to 29%
same,pest or weed control at 70 g/ha,[6]; [18],0 to 29%
same,pest or weed control at 140 g/ha,[6]; [18],45 to 59%
same,pest or weed control at 280 g/ha,[6]; [18],60 to 74%
